Here are results for one compound from PMC6325219, “Preclinical Characterization of NVR 3-778, a First-in-Class Capsid Assembly Modulator against Hepatitis B Virus” (Antimicrobial Agents and Chemotherapy, 2018).

Like-named read-outs stand apart in the source and are kept apart here.

For one data set, the system named is plasma proteins. Put plainly: Plasma protein binding by equilibrium dialysis, rat. It counts as in vitro ADME. Conditions: 2 µM. From the text:
The binding of NVR 3-778 to the plasma proteins of mouse, rat, dog, monkey, and human was investigated by equilibrium dialysis.
(Equilibrium dialysis compares concentrations on both sides of a semipermeable membrane.)

On the set-up of data set [1]: method as in PMID 29079518. Conditions: humanized mice; cited from earlier work.
The test system of data set [2] is HBV core protein variant Y118F. Put plainly: microbe, parasite or virus in culture. From the text: (§1) Plasmids containing HBV DNA with rtN236T, rtA181V, rtA181V/N236T, and rtL180M/M204V/N236T were generated using the GT B WT or rtL180M/M204V DNA-containing plasmids and site-directed mutagenesis (Agilent Technologies). A panel of nine different HBV core variants (cW102G, cW102R, cI105V, cI105L, cI105T, cT109S, cT109M, cT109I, and cY118F) was generated, also using the GT B WT DNA-containing plasmid and site-directed mutagenesis. The full-length genome from all plasmids was sequenced to confirm that only the intended nucleotide change(s) was present. Finally, HBV sequences from genotypes A (GenBank accession number AF305422), C (GenBank accession number AB033550), D (GenBank accession number V01460), E (GenBank accession number AB274971), F (GenBank accession number AB036912), G (GenBank accession number AF160501), and H (GenBank accession number AB375159) were gene synthesized as 1.1 times the genome length together with part of the CMV promoter at the 5′ end. The gene-synthesized piece was validated by sequencing and subcloned into the pCMV-HBV plasmid using the restriction sites SalI and NdeI (Genewiz, USA).
(§2) HepG2 cells were seeded in 96-well plates at a density of 20,000 cells/well and allowed to attach overnight at 37°C in 5% CO2. Cells were cotransfected with the HBV plasmids (100 ng/well) and a Gaussia expression plasmid (10 ng/well) (Thermo Scientific) using the Lipofectamine LTX Plus transfection reagent (Life Technologies). Transfection mixtures were removed after overnight incubation, and cells were treated with serially diluted NVR 3-778 at a final dimethyl sulfoxide (DMSO) concentration of 0.5%. After 3 days of incubation with the compound, the supernatants were collected and secreted Gaussia luciferase was measured using a Gaussia Flash luciferase assay kit (Thermo Scientific). Cells were lysed with 0.33% NP-40 (Thermo Scientific), and the cytoplasmic fractions were treated with 2 units of Turbo DNase (Invitrogen) and 10 units of S7 nuclease (Roche) in CutSmart buffer (New England Biolabs) containing 25 µM CaCl2 (G-Biosciences) at 37°C for 60 min, followed by inactivation of the enzymes at 75°C for 15 min. Samples were diluted into lysis buffer (Affymetrix) containing 2.5 µg proteinase K (Affymetrix) at 50°C for 40 min. Intracellular encapsidated HBV DNA was denatured for 30 min at 25°C in 0.2 M NaOH (Sigma) and incubated with HBV DNA probes designed to hybridize to the minus-strand HBV DNA (Affymetrix). The denatured DNA was subsequently detected using a QuantiGene assay kit, according to the branched DNA (bDNA) assay recommended by the manufacturer (Affymetrix).
(§3) To determine percent inhibition, the mean background signal from wells containing only culture medium was subtracted from the signal for all other samples, and percent inhibition at each compound concentration was calculated by normalization to the signals for HepG2.2.15 cells treated with 0.5% DMSO. […] Both CalcuSyn and MacSynergy II (Ann Arbor, MI) software were used to evaluate the effect of compound combinations ([27]). After data analysis at the 95% confidence level, values of synergy or antagonism of <25 µM^2% were defined as insignificant, those between 25 and 50 µM^2% were defined as minor, those between 50 and 100 µM^2% were defined as moderate, and those of >100 µM^2% were defined as strong.

Data set [3] concerns HBV core protein variant T109M. Put plainly: microbe, parasite or virus in culture.
Description: as §1, §2, §3

Data set [4] addresses T1, recombinant HBV core protein (Hepatitis B virus genotype D subtype ayw, UniProt P03146).
T1 construct: Electron microscopy with HBV capsid formed from recombinant HBV core protein was performed as described previously ([5])
Nature of the data set: Capsid assembly of recombinant core protein, electron microscopy. It counts as biochemical. Conditions: 1.2:1 compound-to-core monomer ratio, 0.15 M NaCl, room temperature overnight. On the procedure: FIG 1 NVR 3-778 targets HBV core protein and inhibits viral replication. (A) Chemical structure of NVR 3-778. (B) Purified recombinant HBV core protein in the absence or presence of NVR 3-778. NVR 3-778 was incubated with recombinant core protein (1.2:1 compound-to-core monomer ratio) in buffer containing 0.15 M NaCl at room temperature overnight prior to staining and imaging by electron microscopy. (C, D) The effect of NVR 3-778 on intracellular rcDNA, extracellular HBV DNA, or cell viability (C) or on intracellular encapsidated pgRNA- or extracellular HBV RNA-containing particles (D) was determined upon treating HepG2.2.15 cells with increasing concentrations of NVR 3-778. (E, F) The effect of TFV on intracellular rcDNA, extracellular HBV DNA, or cell viability (E) or on intracellular encapsidated pgRNA- or extracellular HBV RNA-containing particles (F) was determined upon treating HepG2.2.15 cells with increasing concentrations of TFV. Secreted HBV DNA and secreted HBV RNA levels were determined from the supernatant of HepG2.2.15 cells. Intracellular encapsidated rcDNA and pgRNA levels were determined upon NP-40 lysis of cells and by using S7 nuclease to remove nonencapsidated nucleic acids. Cell viability was determined by measuring ATP levels using the CellTiter-Glo assay. […]

Data set [5] in a line: Oral bioavailability and pharmacokinetics in beagle dogs. The data set is classed as in vivo. Conditions: for AUC(0-inf): read-out: AUC0–inf (mean). On the procedure:
After a 7-day washout period, the same two dogs were administered NVR 3-778 by a single oral gavage of the same formulation at 1.5 mg/kg. Blood samples were collected at 0 (predose), 2 min (for the i.v. group only), 5 min, 15 min, and 0.5, 1, 3, 6, 9, and 24 h postdose. The concentration of NVR 3-778 in plasma samples was determined using LC-MS/MS methods.

Setting [6] is: ratio of mean EC50 for core variant over wild-type HBV.
[7] abbreviates: dog, plasma, iv, single i.v. 0.5 mg/kg, two male beagle dogs.
Where [8] appears, read: dog, plasma, single oral gavage 1.5 mg/kg, two male beagle dogs.

As a reminder, the EC50 is the concentration needed to bring the measured effect to its halfway point. In general, half-life refers to how long it takes for the measured level to halve. A word on the Cmax: it is the maximum level reached in the sampled fluid or tissue. In general, bioavailability refers to dose-corrected exposure relative to a reference, in per cent. Low readings indicate little systemic uptake, high ones much systemic uptake. On to `O=C(Nc1cc(F)c(F)c(F)c1)c1ccc(F)c(S(=O)(=O)N2CCC(O)CC2)c1` [NVR 3-778], for which the “Mean percent binding to plasma proteins” value in the data set with plasma proteins is “approximately 91%”. For the same compound, the “Plasma trough concentrations, all mice” value in data set [1] is on record as “at least 3 µM”. The EC50 in data set [2] (Hepatitis B virus, HepG2, read-out: EC50, core variant Y118F) worked out at 1700 ± 700 nM. In addition, the “EC50 FC, Y118F” value in data set [2] (setting [6]) turned out to be 7.4 fold. Also, in data set [3] (Hepatitis B virus, HepG2, read-out: EC50, core variant T109M), the 50% effective concentration (EC50) amounted to 280 ± 130 nM. In addition, the “EC50 FC, T109M” value in data set [3] (setting [6]) is recorded as 1.2 fold. Moreover, in data set [4], the “Effect on assembly of purified recombinant core protein” value was “effectively induced the formation of capsid-like particles”. In data set [5] (setting [7]), the clearance stood at 6.1 mL/min/kg and the AUC(0-inf) worked out at 1380 ng·h/mL. For the same compound, the half-life in data set [5] (dog, plasma, iv, single i.v. 0.5 mg/kg, two male beagle dogs, read-out: Mean terminal half-life (converted)) is 246 min. Further, the Vd in data set [5] (dog, plasma, iv, single i.v. 0.5 mg/kg, two male beagle dogs, read-out: Volume of distribution at steady state (Vss) (mean)) was found to be 1.7 L/kg. Besides, in data set [5] (setting [8]), the Cmax stood at 560 ng/mL and the AUC(0-inf) came to 3500 ng·h/mL. The “Circulating species in plasma” value in data set [5] (dogs, oral gavage) is listed as “predominant circulating molecule”. In addition, the bioavailability in data set [5] (male, dog, plasma, oral 1.5 mg/kg versus i.v. 0.5 mg/kg, beagle dogs) came out at 84.6%.
